According to patent US20230129788A1, “GLP-1/GLP-2 DUAL AGONISTS” (Zealand Pharma A/S, priority 2020, published 2023):
Starred links: 1 amine or outer side, 2 acyl side, 3 side chain; linkers in the order of their positions; H or OH if unused. Non-standard residues stand in square brackets, D forms with d. Groups on a side chain read outwards from the residue. *: point of attachment. C18 diacid = O=C(O)CCCCCCCCCCCCCCCCC(=O)*; γGlu = O=C(O)[C@H](CCC(=O)[*:2])N[*:1]; Aib = CC(C)(N)C(=O)O

What was measured:
[1] = tested on: Total Parental Nutrition (TPN) Piglet Model; test: Small intestine mass (weight per centimeter) in total parenteral nutrition (TPN) piglet model; format: in vivo; settings: piglets on TPN
Protocol: (§1) One-week-old piglets were placed in heated (25-30° C.) cages. Jugular and duodenal catheters were surgically implanted as described in paragraph 2 (method and material) in Jain 2015. Subsequently, preconditioned jackets and ambulatory pumps for TPN (total parenteral nutrition) delivery were fitted. Animals were started on their randomly assigned groups to receive enteral nutrition (EN; n=11), intravenous total parenteral nutrition plus vehicle (TPN; n=8) or TPN plus compound 18 (Cpd 18; n=13). Cpd 18 and vehicle were administered as daily subcutaneous injections at a dose of either 0.008 mg/kg (n=2), 0.033 mg/kg (n=2), 0.066 mg/kg (n=2) or 0.133 mg/kg (n=7).
(§2) Enteral animals (EN) received a swine milk replacement formula (formula LitterLife as described in Jain 2015, paragraph 2.6). All other animals received total parenteral nutrition (Clinimix E from Baxter as described in Jain 2015, paragraph 2.6).
Post-euthanasia (see Jain 2015, paragraph 2.7), the abdomen was opened, and the small intestine was removed. Small segments of the small bowel were sliced and weighed (see Jain 2015, paragraph 2.78). Tissue was then cut into smaller pieces, preserved for histology and snap-frozen in liquid nitrogen to be stored at −80° C. for analysis.

[2] = tested on: Total Parental Nutrition (TPN) Piglet Model; test: Histology of small bowel, villous/crypt (V/C) ratio, in total parenteral nutrition (TPN) piglet model; format: in vivo, piglets
Protocol: as §1, §2
Segments of fresh tissue (2-3 cm) from the small intestine were fixed in 4% buffered formalin for 24 hours and then stored in 70% ethanol at room temperature for 24 hours. […] Using the small-bowel H&E slides, the mean villous height and crypt depth were quantified in vertically well-oriented villous-crypt columns with the slide reviewer blinded to the treatment to compute a villous/crypt (V/C) ratio for animals in each group.

In the case of “H-H[Aib]EGSFTSELATILDK([γGlu-C18 diacid])QAARDFIAWLIQHKITD-OH [Cpd 18]”, the “mass of the proximal intestine (weight per centimeter)” value ([1]; daily subcutaneous injections 0.008, 0.033, 0.066 or 0.133 mg/kg, sacrifice on day 14, FIG. 1) is reported as “preserved the mass in a dose-dependent fashion”, the “mass of the distal intestine (weight per centimeter)” value ([1]; daily subcutaneous injections 0.008, 0.033, 0.066 or 0.133 mg/kg, sacrifice on day 14, FIG. 2) is reported as “preserved the mass in a dose-dependent fashion” and the “weight of the proximal intestine at the highest dose compared to animals on EN” value ([1]; highest dose (0.133 mg/kg daily s.c.), sacrifice on day 14, FIG. 1) is reported as “approximately the same as in the animals on EN”. The “weight of the distal intestine at the highest dose, greater than that in the animals on TPN” value ([1]; highest dose (0.133 mg/kg daily s.c.), sacrifice on day 14, FIG. 2) was “approximately 50%”, the “histological section of the small bowel, villi and crypts” value ([2]; piglet on TPN, 0.133 mg/kg for 14 days, FIG. 6 compared to FIG. 4) was “villi and crypts are comparable to the animal receiving enteral nutrition” and the “V/C ratio of the small bowel” value ([2]; piglets on TPN, 0.133 mg/kg daily s.c., sacrifice on day 14, FIG. 3) was “completely preserved the V/C ratio to the same ratio seen in the animals on EN”.
